Assay [1] relates to Mycobacterium tuberculosis. Nature of the assay: Antimycobacterial activity against Mycobacterium tuberculosis H37Rv assessed as growth inhibition at 10 uM after 6 days by MTT colorimetric microassay. The format is functional. Conditions: for inhibition of growth at 10 µM: 144 h, read-out: GI.
In assay [2] the test system is Mycobacterium tuberculosis. Briefly: Antimycobacterial activity against Mycobacterium tuberculosis H37Rv assessed as growth inhibition at 0.1 uM after 6 days by MTT colorimetric microassay. Type of assay: functional, organism-based.
A further assay has as its system Enterococcus hirae. Nature of the assay: Antimicrobial activity against Enterococcus hirae CIP 5855 after 18 to 24 hrs by broth microdilution method. The format is functional. Background: Broth dilution looks for growth in wells or tubes with falling amounts of substance.
The next assay relates to Pseudomonas aeruginosa. Briefly: Antimicrobial activity against Pseudomonas aeruginosa CIP 82.118 after 18 to 24 hrs by broth microdilution method. The format is functional.
The subject of assay [3] is Staphylococcus aureus. Nature of the assay: Antimicrobial activity against Staphylococcus aureus CIP 4.83 after 18 to 24 hrs by broth microdilution method. Type of assay: functional.
Another assay relates to Escherichia coli. Briefly: Antimicrobial activity against Escherichia coli CIP 53126 after 18 to 24 hrs by broth microdilution method. Type of assay: functional.
Assay [4] relates to Staphylococcus aureus. Briefly: Antimicrobial activity against multidrug-resistant Staphylococcus aureus isolate 1 after 18 to 24 hrs by broth microdilution method. Type of assay: functional.
For assay [5], the system named is Staphylococcus aureus. Briefly: Antimicrobial activity against methicillin-resistant Staphylococcus aureus ATCC 33592 after 18 to 24 hrs by broth microdilution method. Type of assay: functional.
In assay [6] the test system is Staphylococcus aureus. Nature of the assay: Antimicrobial activity against methicillin-resistant Staphylococcus aureus ATCC 33591 after 18 to 24 hrs by broth microdilution method. Type of assay: functional.
Assay [7] concerns Staphylococcus aureus. Briefly: Antimicrobial activity against multidrug-resistant Staphylococcus aureus isolate 2 after 18 to 24 hrs by broth microdilution method. Type of assay: functional.

Each structure is given as a SMILES string. Values after ≈ are worked out from the molar mass of the structure shown. Active and inactive are the calls of the source.

As a reminder, the MBC is the lowest tested concentration that kills the bacteria rather than only halting them. Lower therefore signals greater bactericidal potency. By MIC is commonly meant the least concentration at which growth counts as inhibited. As to `CCCCCCCCCC(=O)OCOC(=O)c1cn2c3c(c(N4CCN(C)CC4)c(F)cc3c1=O)OC[C@@H]2C`, in assay [1], the inhibition of growth at 10 µM is > 95%. Moreover, the “growth inhibition (GI)” value in assay [2] was “inactive”. Besides, the MBC was 1.9 µM (≈ 1.04 µg/mL) against Enterococcus hirae, 3.9 µM (≈ 2.13 µg/mL) against Pseudomonas aeruginosa, ≤ 0.97 µM against Staphylococcus aureus [3] and ≤ 0.97 µM in the assay on Escherichia coli. Also, the MIC in the assay on Enterococcus hirae, in the assay with Pseudomonas aeruginosa, against Staphylococcus aureus [3] and against Escherichia coli was ≤ 0.97 µM in each case.

As for `CCCCCCCCCCC(=O)OCC(=O)N1CCN(c2cc3c(cc2F)c(=O)c(C(=O)O)cn3C2CC2)CC1`, the MBC stood at 500 µM (≈ 279 µg/mL) in the assay with Staphylococcus aureus [4]; 0.03 µM (≈ 0.0167 µg/mL) with Staphylococcus aureus [5]; 1.9 µM (≈ 1.06 µg/mL) in the assay with Staphylococcus aureus [6]; 15.6 µM (≈ 8.7 µg/mL) against Staphylococcus aureus [7]; 1.9 µM (≈ 1.06 µg/mL) in the assay on Enterococcus hirae; 250 µM (≈ 139 µg/mL) against Pseudomonas aeruginosa. Moreover, the MBC against Staphylococcus aureus [3] was ≤ 0.97 µM; against Escherichia coli it was 250 µM (≈ 139 µg/mL). Further, the MIC was 15.6 µM (≈ 8.7 µg/mL) in the assay with Staphylococcus aureus [4]; 0.97 µM (≈ 0.541 µg/mL) in the assay on Staphylococcus aureus [6]; 7.8 µM (≈ 4.35 µg/mL) in the assay on Staphylococcus aureus [7]; ≤ 0.97 µM with Enterococcus hirae; 62.5 µM (≈ 34.9 µg/mL) against Pseudomonas aeruginosa; ≤ 0.97 µM in the assay on Staphylococcus aureus [3]. The same compound came in with an MIC in the assay with Escherichia coli of 62.5 µM (≈ 34.9 µg/mL). The inhibition of growth at 10 µM in [1] was > 95%. The “growth inhibition (GI)” value in assay [2] was “inactive”.

`O=C(O)c1cn(C2CC2)c2cc(N3CCN(C(=O)CCCCCCCCCCCCCCCCC(=O)N4CCN(c5cc6c(cc5F)c(=O)c(C(=O)O)cn6C5CC5)CC4)CC3)c(F)cc2c1=O`: the “growth inhibition (GI)” value in [1] and in assay [2] was “inactive” each time. For the same compound, the MBC in the assay with Enterococcus hirae amounted to 500 µM (≈ 471 µg/mL); in the assay with Pseudomonas aeruginosa, 250 µM (≈ 235 µg/mL); with Staphylococcus aureus [3], 500 µM (≈ 471 µg/mL); in the assay with Escherichia coli, 500 µM (≈ 471 µg/mL). Also, the MIC in the assay on Enterococcus hirae, against Pseudomonas aeruginosa, in the assay on Staphylococcus aureus [3] and against Escherichia coli was 125 µM (≈ 118 µg/mL) throughout.

As to `O=C(O)c1cn(C2CC2)c2cc(N3CCN(C(=O)CCCCCCCCC(=O)N4CCN(c5cc6c(cc5F)c(=O)c(C(=O)O)cn6C5CC5)CC4)CC3)c(F)cc2c1=O`, the “growth inhibition (GI)” value in [1] and in assay [2] was “inactive” throughout. Moreover, the MBC against Enterococcus hirae turned out to be 250 µM (≈ 207 µg/mL); in the assay on Pseudomonas aeruginosa, 125 µM (≈ 104 µg/mL); in the assay on Staphylococcus aureus [3] it was 250 µM (≈ 207 µg/mL); with Escherichia coli it was 250 µM (≈ 207 µg/mL). For the same compound, the MIC turned out to be 250 µM (≈ 207 µg/mL) in the assay on Enterococcus hirae, 62.5 µM (≈ 51.8 µg/mL) against Pseudomonas aeruginosa, 250 µM (≈ 207 µg/mL) against Staphylococcus aureus [3] and 250 µM (≈ 207 µg/mL) in the assay on Escherichia coli.

Turning to `O=C(CCCCCCCCC(=O)OCN1CCN(c2cc3c(cc2F)c(=O)c(C(=O)O)cn3C2CC2)CC1)OCN1CCN(c2cc3c(cc2F)c(=O)c(C(=O)O)cn3C2CC2)CC1`, the inhibition of growth at 10 µM in assay [1] was determined as 62%. Further, the “growth inhibition (GI)” value in assay [2] was “inactive”. Moreover, the MBC against Enterococcus hirae was 250 µM (≈ 222 µg/mL); against Pseudomonas aeruginosa, 125 µM (≈ 111 µg/mL); in the assay with Staphylococcus aureus [3] it was 250 µM (≈ 222 µg/mL); against Escherichia coli, 62.5 µM (≈ 55.6 µg/mL). For the same compound, the MIC in the assay on Enterococcus hirae is 62.5 µM (≈ 55.6 µg/mL); with Pseudomonas aeruginosa it was 31.2 µM (≈ 27.7 µg/mL); with Staphylococcus aureus [3] it was 31.2 µM (≈ 27.7 µg/mL); in the assay on Escherichia coli, 31.2 µM (≈ 27.7 µg/mL).

Take `C[C@H]1COc2c(N3CCN(C)CC3)c(F)cc3c(=O)c(C(=O)NCCCCCNC(=O)c4cn5c6c(c(N7CCN(C)CC7)c(F)cc6c4=O)OC[C@@H]5C)cn1c23`: the inhibition of growth at 10 µM in [1] turned out to be 60%. In addition, the “growth inhibition (GI)” value in [2] is “inactive”. Also, the MBC against Enterococcus hirae is 250 µM (≈ 197 µg/mL); against Pseudomonas aeruginosa, 250 µM (≈ 197 µg/mL); with Staphylococcus aureus [3], 500 µM (≈ 394 µg/mL); in the assay on Escherichia coli, 62.5 µM (≈ 49.3 µg/mL). For the same compound, the MIC in the assay with Enterococcus hirae came out at 125 µM (≈ 98.6 µg/mL); against Pseudomonas aeruginosa, 62.5 µM (≈ 49.3 µg/mL); in the assay with Staphylococcus aureus [3] it was 125 µM (≈ 98.6 µg/mL); in the assay with Escherichia coli, 62.5 µM (≈ 49.3 µg/mL).

Regarding `CCCCCCCCC(=O)OCC(=O)N1CCN(c2cc3c(cc2F)c(=O)c(C(=O)O)cn3C2CC2)CC1`, the MBC in the assay on Staphylococcus aureus [4] is 15.6 µM (≈ 8.26 µg/mL); against Staphylococcus aureus [5] it was 0.02 µM (≈ 0.0106 µg/mL); against Staphylococcus aureus [6], 0.24 µM (≈ 0.127 µg/mL); against Staphylococcus aureus [7], 15.6 µM (≈ 8.26 µg/mL); in the assay on Enterococcus hirae, ≤ 0.97 µM; with Pseudomonas aeruginosa it was 250 µM (≈ 132 µg/mL). The minimum bactericidal concentration (MBC) against Staphylococcus aureus [3] is ≤ 0.12 µM; against Escherichia coli, 500 µM (≈ 265 µg/mL). Moreover, the minimal inhibitory concentration (MIC) against Staphylococcus aureus [4] is 7.8 µM (≈ 4.13 µg/mL); in the assay with Staphylococcus aureus [5], 0.02 µM (≈ 0.0106 µg/mL); in the assay with Staphylococcus aureus [6], 0.03 µM (≈ 0.0159 µg/mL); in the assay with Staphylococcus aureus [7], 7.8 µM (≈ 4.13 µg/mL); against Enterococcus hirae, ≤ 0.97 µM; in the assay with Pseudomonas aeruginosa, 31.2 µM (≈ 16.5 µg/mL). The figures for the MIC against Staphylococcus aureus [3] and against Escherichia coli were ≤ 0.12 µM and 62.5 µM (≈ 33.1 µg/mL), respectively. The inhibition of growth at 10 µM in assay [1] was > 95%. Besides, in assay [2], the “growth inhibition (GI)” value was “inactive”.

As to `CCCCCCCCCCCCCCNC(=O)c1cn2c3c(c(N4CCN(C)CC4)c(F)cc3c1=O)OC[C@@H]2C`, the inhibition of growth at 10 µM in assay [1] is > 95%. Further, the “growth inhibition (GI)” value in assay [2] was “inactive”. The MBC with Enterococcus hirae came to 3.9 µM (≈ 2.17 µg/mL); with Pseudomonas aeruginosa, 250 µM (≈ 139 µg/mL); with Staphylococcus aureus [3], 31.2 µM (≈ 17.4 µg/mL); against Escherichia coli, 250 µM (≈ 139 µg/mL). The MIC in the assay with Enterococcus hirae was found to be 3.9 µM (≈ 2.17 µg/mL); with Pseudomonas aeruginosa it was 62.5 µM (≈ 34.8 µg/mL); against Staphylococcus aureus [3], 7.8 µM (≈ 4.34 µg/mL); against Escherichia coli, 125 µM (≈ 69.6 µg/mL).

(Values after ChEMBL document CHEMBL1914411, “Synthesis of lipophilic dimeric C-7/C-7-linked ciprofloxacin and C-6/C-6-linked levofloxacin derivatives. Versatile in vitro biological evaluations of monomeric and dimeric fluoroquinolone derivatives as potential antitumor, antibacterial or antimycobacterial agents” (Eur J Med Chem, 2011).)
